According to ChEMBL document CHEMBL1156106 (J Med Chem, 2009):

Assays:
Mus musculus [1] = assay: Antidepressant activity in ip dosed mouse assessed as stimulation of locomotor activity; type: functional
Mus musculus [2] = assay: Antidepressant activity in ip dosed mouse assessed as duration of locomotor activity; type: functional
Mus musculus [3] = assay: Antidepressant activity in ip dosed mouse assessed as time to reach peak stimulation of locomotor activity; type: functional
Rattus norvegicus [4] = assay: Effect on behavioural activity in ip dosed rat assessed as cocaine-induced lever response pretreated with cocaine by drug-discrimination studies; type: functional
Mus musculus [5] = assay: Antidepressant activity in ip dosed mouse assessed as stimulation of locomotor activity relative to cocaine; type: functional
Rattus norvegicus [6] = assay: Effect on behavioural activity in rat assessed as cocaine-induced lever response at 10 mg/kg, ip pretreated with cocaine for 15 mins by drug-discrimination studies; type: functional; conditions: route intraperitoneal
Rattus norvegicus [7] = assay: Effect on behavioural activity in rat assessed as cocaine-induced lever response at 50 mg/kg, ip pretreated with cocaine for 15 mins by drug-discrimination studies; type: functional; conditions: route intraperitoneal
[8] = molecular target: T1, Sodium-dependent serotonin transporter (Homo sapiens, UniProt P31645); assay: biochemical; type: cell-based, HEK293
[9] = molecular target: Sodium-dependent noradrenaline transporter (Homo sapiens, UniProt P23975); assay: Displacement of [125I]RTI55 from cloned human NET expressed in HEK293 cells; type: cell-based
Rattus norvegicus [10] = assay: Effect on behavioural activity in rat assessed as cocaine-induced lever response at 25 mg/kg, ip pretreated with cocaine for 15 mins by drug-discrimination studies; type: functional; conditions: route intraperitoneal
[11] = molecular target: Sodium-dependent dopamine transporter (Homo sapiens, UniProt Q01959); assay: Displacement of [125I]RTI55 from cloned human DAT expressed in HEK293 cells; type: cell-based
[12] = molecular target: T1, Sodium-dependent serotonin transporter; assay: Inhibition of [3H]serotonin reuptake at human SERT expressed in HEK293 cells; type: cell-based
Rattus norvegicus [13] = assay: Effect on behavioural activity in rat assessed as cocaine-induced lever response at 25 mg/kg, po pretreated with cocaine for 180 mins by drug-discrimination studies; type: functional
Rattus norvegicus [14] = assay: Effect on behavioural activity in rat assessed as cocaine-induced lever response at 50 mg/kg, po pretreated with cocaine for 180 mins by drug-discrimination studies; type: functional
Rattus norvegicus [15] = assay: Effect on behavioural activity in rat assessed as cocaine-induced lever response at 5 mg/kg, po pretreated with cocaine for 180 mins by drug-discrimination studies; type: functional
Rattus norvegicus [16] = assay: Effect on behavioural activity in rat assessed as cocaine-induced lever response at 5 mg/kg, po pretreated with cocaine for 45 mins by drug-discrimination studies; type: functional
Rattus norvegicus [17] = assay: Effect on behavioural activity in rat assessed as cocaine-induced lever response at 25 mg/kg, po pretreated with cocaine for 90 mins by drug-discrimination studies; type: functional
Rattus norvegicus [18] = assay: Effect on behavioural activity in rat assessed as cocaine-induced lever response at 10 mg/kg, po pretreated with cocaine for 45 mins by drug-discrimination studies; type: functional
Rattus norvegicus [19] = assay: Effect on behavioural activity in rat assessed as cocaine-induced lever response at 10 mg/kg, po pretreated with cocaine for 360 mins by drug-discrimination studies; type: functional
Rattus norvegicus [20] = assay: Effect on behavioural activity in rat assessed as cocaine-induced lever response at 25 mg/kg, ip pretreated with cocaine for 30 mins by drug-discrimination studies; type: functional; conditions: route intraperitoneal
Rattus norvegicus [21] = assay: Effect on behavioural activity in rat assessed as cocaine-induced lever response at 5 mg/kg, po pretreated with cocaine for 90 mins by drug-discrimination studies; type: functional
Rattus norvegicus [22] = assay: Effect on behavioural activity in rat assessed as cocaine-induced lever response at 50 mg/kg, po pretreated with cocaine for 45 mins by drug-discrimination studies; type: functional
Rattus norvegicus [23] = assay: Effect on behavioural activity in rat assessed as cocaine-induced lever response at 25 mg/kg, po pretreated with cocaine for 360 mins by drug-discrimination studies; type: functional
Rattus norvegicus [24] = assay: Effect on behavioural activity in rat assessed as cocaine-induced lever response at 10 mg/kg, po pretreated with cocaine for 180 mins by drug-discrimination studies; type: functional
Rattus norvegicus [25] = assay: Effect on behavioural activity in rat assessed as cocaine-induced lever response at 50 mg/kg, po pretreated with cocaine for 90 mins by drug-discrimination studies; type: functional
Rattus norvegicus [26] = assay: Effect on behavioural activity in rat assessed as cocaine-induced lever response at 10 mg/kg, ip pretreated with cocaine for 30 mins by drug-discrimination studies; type: functional; conditions: route intraperitoneal
Rattus norvegicus [27] = assay: Effect on behavioural activity in rat assessed as cocaine-induced lever response at 5 mg/kg, ip pretreated with cocaine for 30 mins by drug-discrimination studies; type: functional; conditions: route intraperitoneal
Rattus norvegicus [28] = assay: Effect on behavioural activity in rat assessed as cocaine-induced lever response at 25 mg/kg, po pretreated with cocaine for 45 mins by drug-discrimination studies; type: functional
Rattus norvegicus [29] = assay: Effect on behavioural activity in po dosed rat assessed as cocaine-induced lever response pretreated with cocaine by drug-discrimination studies; type: functional
Rattus norvegicus [30] = assay: Effect on behavioural activity in rat assessed as cocaine-induced lever response at 2.5 mg/kg, ip pretreated with cocaine for 30 mins by drug-discrimination studies; type: functional; conditions: route intraperitoneal
Rattus norvegicus [31] = assay: Effect on behavioural activity in rat assessed as cocaine-induced lever response at 5 mg/kg, po pretreated with cocaine for 360 mins by drug-discrimination studies; type: functional
Rattus norvegicus [32] = assay: Effect on behavioural activity in rat assessed as cocaine-induced lever response at 50 mg/kg, po pretreated with cocaine for 360 mins by drug-discrimination studies; type: functional
Rattus norvegicus [33] = assay: Effect on behavioural activity in rat assessed as cocaine-induced lever response at 10 mg/kg, po pretreated with cocaine for 90 mins by drug-discrimination studies; type: functional

Chain of Sodium-dependent dopamine transporter (Q01959 whole entry): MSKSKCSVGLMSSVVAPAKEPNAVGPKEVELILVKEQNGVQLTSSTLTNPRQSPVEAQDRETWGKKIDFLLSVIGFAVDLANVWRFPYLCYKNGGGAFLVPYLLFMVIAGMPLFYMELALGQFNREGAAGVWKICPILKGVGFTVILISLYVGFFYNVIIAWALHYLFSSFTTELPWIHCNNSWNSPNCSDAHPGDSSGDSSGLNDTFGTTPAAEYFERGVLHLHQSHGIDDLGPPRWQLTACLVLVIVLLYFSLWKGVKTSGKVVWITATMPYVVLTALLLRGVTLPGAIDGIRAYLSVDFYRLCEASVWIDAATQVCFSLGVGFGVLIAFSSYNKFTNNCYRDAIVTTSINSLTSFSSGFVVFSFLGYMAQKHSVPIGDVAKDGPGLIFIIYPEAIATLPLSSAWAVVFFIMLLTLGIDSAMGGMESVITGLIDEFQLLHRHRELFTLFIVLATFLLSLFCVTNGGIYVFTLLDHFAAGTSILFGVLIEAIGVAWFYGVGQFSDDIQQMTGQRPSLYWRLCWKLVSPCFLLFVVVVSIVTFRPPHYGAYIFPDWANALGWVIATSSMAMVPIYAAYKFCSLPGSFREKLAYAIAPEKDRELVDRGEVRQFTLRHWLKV
T1 sequence (P31645 whole entry): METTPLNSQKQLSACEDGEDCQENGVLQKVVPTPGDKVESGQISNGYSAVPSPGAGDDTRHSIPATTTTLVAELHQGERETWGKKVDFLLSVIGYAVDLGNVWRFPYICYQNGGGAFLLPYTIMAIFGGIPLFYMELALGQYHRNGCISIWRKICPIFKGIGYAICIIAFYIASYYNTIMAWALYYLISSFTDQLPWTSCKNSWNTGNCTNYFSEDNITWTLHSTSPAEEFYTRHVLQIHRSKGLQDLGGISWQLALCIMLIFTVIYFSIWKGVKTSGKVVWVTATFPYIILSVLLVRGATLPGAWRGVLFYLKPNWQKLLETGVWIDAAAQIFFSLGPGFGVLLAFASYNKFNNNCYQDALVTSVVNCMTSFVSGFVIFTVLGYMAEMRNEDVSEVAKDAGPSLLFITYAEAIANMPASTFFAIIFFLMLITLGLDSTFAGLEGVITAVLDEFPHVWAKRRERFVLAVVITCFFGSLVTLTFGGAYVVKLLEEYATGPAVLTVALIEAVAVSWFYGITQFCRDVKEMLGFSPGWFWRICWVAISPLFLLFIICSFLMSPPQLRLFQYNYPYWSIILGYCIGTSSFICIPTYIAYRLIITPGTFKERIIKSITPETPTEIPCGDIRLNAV
Chain of Sodium-dependent noradrenaline transporter (P23975 whole entry): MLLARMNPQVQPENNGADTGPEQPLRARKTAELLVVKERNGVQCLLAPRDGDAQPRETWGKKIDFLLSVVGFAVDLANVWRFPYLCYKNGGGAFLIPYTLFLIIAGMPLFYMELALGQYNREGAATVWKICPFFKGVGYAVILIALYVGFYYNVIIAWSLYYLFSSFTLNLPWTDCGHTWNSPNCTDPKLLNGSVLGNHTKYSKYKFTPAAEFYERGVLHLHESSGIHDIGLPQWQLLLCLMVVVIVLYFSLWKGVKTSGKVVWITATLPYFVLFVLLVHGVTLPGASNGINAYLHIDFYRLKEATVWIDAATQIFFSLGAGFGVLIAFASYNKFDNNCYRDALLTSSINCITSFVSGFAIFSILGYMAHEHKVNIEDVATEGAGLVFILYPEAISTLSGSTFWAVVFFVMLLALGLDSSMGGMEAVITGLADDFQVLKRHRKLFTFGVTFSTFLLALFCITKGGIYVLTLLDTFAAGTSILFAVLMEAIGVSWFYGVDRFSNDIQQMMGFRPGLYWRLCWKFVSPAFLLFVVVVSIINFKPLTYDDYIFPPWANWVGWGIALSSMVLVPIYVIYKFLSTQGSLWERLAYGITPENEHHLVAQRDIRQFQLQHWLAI

With `COC(=O)[C@H]1[C@@H](OC(=O)c2ccccc2)C[C@@H]2CC[C@H]1N2C` [COCAINE] the ED50 (Mus musculus [1]) was 7.8 mg/kg, the Time (Mus musculus [2]) was 40 min and the “Time to peak locomotor stimulation” value (Mus musculus [3]) was 0 min. For the same molecule, the ED50 (Rattus norvegicus [4]) was 5.9 mg/kg.

`CC(C(=O)c1cccc(Cl)c1)N(C)C(C)(C)C` (stereo unspecified) was tested, and the Activity (Mus musculus [5]) was 95%, the ED50 (Mus musculus [1]) was 11.7 mg/kg and the Time (Mus musculus [2]) was 200 min. The “Time to peak locomotor stimulation” value (Mus musculus [3]) was 80 min, the Activity (Rattus norvegicus [6]) was 49.4% and the Activity (Rattus norvegicus [7]) was 66.7%. The Ki [8] was greater than 10 µM, the Ki [9] was greater than 10 µM and the Activity (Rattus norvegicus [10]) was 75%.

Work on `CC1C(=O)c2cc(Cl)ccc2CN1C(C)(C)C` (stereo unspecified) yielded a Ki [11] greater than 10 µM, a Ki [8] greater than 10 µM and a Ki [9] greater than 10 µM.

Work on `CC(C)(C)NC1CCc2ccc(Cl)cc2C1=O` (stereo unspecified) yielded an ED50 (Mus musculus [1]) of 2.6 mg/kg, a Ki [11] greater than 10 µM and a Ki [8] greater than 10 µM. For the same molecule, the Ki [9] was greater than 10 µM.

`CC(NC(C)(C)C)C(=O)c1cc(Cl)cc(Cl)c1` (stereo unspecified) showed a Ki [11] greater than 10 µM, a Ki [8] greater than 10 µM and a Ki [9] greater than 10 µM.

`CC(NC(C)(C)C)C(O)c1ccccc1` (racemic) showed an Activity (Mus musculus [5]) of 41%, a Time (Mus musculus [2]) of 390 min and a Ki [11] greater than 10 µM. The “Time to peak locomotor stimulation” value (Mus musculus [3]) was 150 min, the IC50 [12] was 1.24 µM and the Ki [8] was 4 µM. The Ki [9] was greater than 10 µM.

In the case of `Cc1ccc(C(=O)C(C)NC(C)(C)C)cc1Cl` (stereo unspecified), the Activity (Mus musculus [5]) is reported as “>=77%”, the ED50 (Mus musculus [1]) is reported as no less than 35.5 mg/kg and the Time (Mus musculus [2]) is reported as 60 min. For the same molecule, the “Time to peak locomotor stimulation” value (Mus musculus [3]) was 10 min.

`CCCCC(NC(C)(C)C)C(=O)c1cccc(Cl)c1` (stereo unspecified) showed an Activity (Rattus norvegicus [13]) of 0%, an Activity (Rattus norvegicus [14]) of 17% and an Activity (Rattus norvegicus [15]) of 26%. It also gave an Activity (Mus musculus [5]) of 136%, an ED50 (Mus musculus [1]) of 10.2 mg/kg and an Activity (Rattus norvegicus [16]) of 17%. For the same molecule, the Activity (Rattus norvegicus [17]) was 0%, the Time (Mus musculus [2]) was 40 min and the Activity (Rattus norvegicus [18]) was 0%. For the same molecule, the Activity (Rattus norvegicus [19]) was 0%, the Activity (Rattus norvegicus [20]) was 100% and the Activity (Rattus norvegicus [21]) was 0%. For the same molecule, the “Time to peak locomotor stimulation” value (Mus musculus [3]) was 0 min, the Activity (Rattus norvegicus [22]) was 83% and the Activity (Rattus norvegicus [23]) was 0%. It also gave an Activity (Rattus norvegicus [24]) of 29%, an Activity (Rattus norvegicus [25]) of 17% and an ED50 (Rattus norvegicus [4]) of 10 mg/kg. The Activity (Rattus norvegicus [26]) was 66.6%, the Activity (Rattus norvegicus [27]) was 17.2% and the Activity (Rattus norvegicus [28]) was 0%. The ED50 (Rattus norvegicus [29]) was 46.9 mg/kg, the Activity (Rattus norvegicus [30]) was 0% and the Activity (Rattus norvegicus [31]) was 0%. For the same molecule, the Activity (Rattus norvegicus [32]) was 0%, the Ki [8] was greater than 10 µM and the Activity (Rattus norvegicus [33]) was 0%.
